Results from patent US20100209345A1, “Fluorinated Ligands for Targeting Peripheral Benzodiazepine Receptors” (Australian Nuclear Science & Technology Organisation, priority 2006, published 2010).

Experiments:
[1] = Biodistribution of 18F-labelled tracers in rats; type: in vivo
Method in brief: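 Sprague-Dawley rats received 18F tracer, and brain and peripheral tissues were analysed at 15 and 30 min and 1 and 4 h post-injection. For specificity, rats were pretreated 5 min beforehand with PK11195 or Ro 5-4864 (PBR) or flumazenil (CBR), each at 1 mg/kg.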

[2] = target: T1, peripheral benzodiazepine receptors (Rattus norvegicus, UniProt P16257); assay: In vivo blocking / competition of tracer uptake by pre-treatment with PBR and CBR ligands; conditions: rats; for Tracer uptake after pre-treatment with PK 11195 / Tracer uptake after pre-treatment with Ro 5-4864: PBR-expressing tissues (brain/peripheral organs, adrenals apart); for Tracer uptake after pre-treatment with flumazenil (central benzodiazepine ligand): flumazenil 1 mg/kg 5 min prior to tracer, brain or peripheral organs
T1 construct: high uptake in the tissues which have known PBR sites; from tissue; host or cells: organs of living SD rats (brain and peripheral tissues), in vivo
Method in brief: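 SD rats received PBR ligands PK11195 or Ro 5-4864, or the CBR ligand flumazenil, at 1 mg/kg 5 min before tracer injection. Brain and peripheral tissue uptake analysed at 15, 30 min, 1 and 4 h p.i.; significance set at p<0.05 and p<0.01 versus normals or controls.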

[3] = SD rats, 15 min, decay correction not stated
[4] = SD rats, 4 hours, decay correction not stated
[5] = rats, 15 min, corrected for decay of 18F
[6] = rats, 15 min, not corrected for decay of 18F
[7] = rats, 30 min, corrected for decay of 18F
[8] = rats, 30 min, not corrected for decay of 18F
[9] = rats, 60 min (1 hour), not corrected for decay of 18F
[10] = rats, 60 min, corrected for decay of 18F
[11] = rats, 4 hours, corrected for decay of 18F
[12] = rats, 4 hours, not corrected for decay of 18F

CCN(CC)C(=O)Cc1c(-c2ccc(OCCF)cc2)nc2ccc(Cl)cn12 [PBR102, 2-(2-(4-(2-fluoroethoxy)phenyl)-6-chloroimidazo[1,2-a]pyridin-3-yl)-N,N-diethylacetamide]
Biodistribution: Bone [1, 3]: 0.4 % ID/g
Biodistribution: Kidney [1, 3]: 4.5 % ID/g
Biodistribution: Olfactory bulbs [1, 3]: 0.56 % ID/g
Biodistribution: Adrenals ([1]; SD rats, 30 min, decay correction not stated): 9 % ID/g
Biodistribution: Adrenals [1, 4]: 11 % ID/g
Biodistribution: Bone [1, 4]: 1.0 % ID/g
Biodistribution: Kidney [1, 4]: 1.3 % ID/g
Biodistribution: Olfactory bulbs [1, 4]: 0.40 % ID/g
Blood activity level / concentration in the blood over the 4 h study period ([1]; SD rats, throughout 15 min to 4 h): 0.20%
Biodistribution: Bone [1, 5]: 0.46 ± 0.04 % ID/g
Biodistribution: Heart [1, 5]: 4.35 ± 0.33 % ID/g
Biodistribution: Lungs [1, 5]: 14.30 ± 1.45 % ID/g
Biodistribution: Skin [1, 5]: 0.24 ± 0.03 % ID/g
Biodistribution: Adrenals [1, 6]: 8.30 ± 2.13 % ID/g
Biodistribution: Bladder [1, 6]: 0.59 ± 0.14 % ID/g
Biodistribution: Blood [1, 6]: 0.25 ± 0.06 % ID/g
Biodistribution: Bone [1, 6]: 0.56 ± 0.07 % ID/g
Biodistribution: Brain [1, 6]: 0.24 ± 0.03 % ID/g
Biodistribution: GIT [1, 6]: 0.82 ± 0.11 % ID/g
Biodistribution: Heart [1, 6]: 5.23 ± 0.33 % ID/g
Biodistribution: Kidney [1, 6]: 3.90 ± 0.53 % ID/g
Biodistribution: Liver [1, 6]: 0.75 ± 0.21 % ID/g
Biodistribution: Lungs [1, 6]: 17.25 ± 1.70 % ID/g
Biodistribution: Muscle [1, 6]: 0.49 ± 0.03 % ID/g
Biodistribution: Olfactory bulbs [1, 6]: 0.68 ± 0.12 % ID/g
Biodistribution: Pancreas [1, 6]: 1.74 ± 0.22 % ID/g
Biodistribution: Skin [1, 6]: 0.29 ± 0.05 % ID/g
Biodistribution: Spleen [1, 6]: 5.35 ± 0.89 % ID/g
Biodistribution: Stomach [1, 6]: 0.80 ± 0.19 % ID/g
Biodistribution: Testes [1, 6]: 0.22 ± 0.02 % ID/g
Biodistribution: Thymus [1, 6]: 0.68 ± 0.17 % ID/g
Biodistribution: Thyroid [1, 6]: 7.74 ± 1.90 % ID/g
Biodistribution: Bone [1, 7]: 0.52 ± 0.05 % ID/g
Biodistribution: Heart [1, 7]: 4.44 ± 0.26 % ID/g
Biodistribution: Lungs [1, 7]: 12.10 ± 1.98 % ID/g
Biodistribution: Skin [1, 7]: 0.31 ± 0.03 % ID/g
Biodistribution: Adrenals [1, 8]: 9.75 ± 1.53 % ID/g
Biodistribution: Bladder [1, 8]: 0.67 ± 0.16 % ID/g
Biodistribution: Blood [1, 8]: 0.21 ± 0.03 % ID/g
Biodistribution: Bone [1, 8]: 0.64 ± 0.12 % ID/g
Biodistribution: Brain [1, 8]: 0.20 ± 0.04 % ID/g
Biodistribution: GIT [1, 8]: 1.07 ± 0.26 % ID/g
Biodistribution: Heart [1, 8]: 5.41 ± 0.71 % ID/g
Biodistribution: Kidney [1, 8]: 3.95 ± 1.01 % ID/g
Biodistribution: Liver [1, 8]: 0.63 ± 0.21 % ID/g
Biodistribution: Lungs [1, 8]: 14.80 ± 3.67 % ID/g
Biodistribution: Muscle [1, 8]: 0.46 ± 0.08 % ID/g
Biodistribution: Olfactory bulbs [1, 8]: 0.44 ± 0.05 % ID/g
Biodistribution: Pancreas [1, 8]: 1.42 ± 0.45 % ID/g
Biodistribution: Skin [1, 8]: 0.37 ± 0.05 % ID/g
Biodistribution: Spleen [1, 8]: 4.68 ± 0.90 % ID/g
Biodistribution: Stomach [1, 8]: 0.71 ± 0.21 % ID/g
Biodistribution: Testes [1, 8]: 0.29 ± 0.05 % ID/g
Biodistribution: Thymus [1, 8]: 0.81 ± 0.06 % ID/g
Biodistribution: Thyroid [1, 8]: 10.70 ± 2.08 % ID/g
Biodistribution: Adrenals [1, 9]: 7.88 ± 1.86 % ID/g
Biodistribution: Bladder [1, 9]: 0.60 ± 0.11 % ID/g
Biodistribution: Blood [1, 9]: 0.20 ± 0.03 % ID/g
Biodistribution: Bone [1, 9]: 0.73 ± 0.13 % ID/g
Biodistribution: Brain [1, 9]: 0.20 ± 0.03 % ID/g
Biodistribution: GIT [1, 9]: 1.09 ± 0.13 % ID/g
Biodistribution: Heart [1, 9]: 5.32 ± 0.74 % ID/g
Biodistribution: Kidney [1, 9]: 3.10 ± 0.51 % ID/g
Biodistribution: Liver [1, 9]: 0.40 ± 0.04 % ID/g
Biodistribution: Lungs [1, 9]: 13.44 ± 2.71 % ID/g
Biodistribution: Muscle [1, 9]: 0.39 ± 0.07 % ID/g
Biodistribution: Olfactory bulbs [1, 9]: 0.52 ± 0.05 % ID/g
Biodistribution: Pancreas [1, 9]: 0.88 ± 0.18 % ID/g
Biodistribution: Skin [1, 9]: 0.43 ± 0.07 % ID/g
Biodistribution: Spleen [1, 9]: 3.89 ± 0.54 % ID/g
Biodistribution: Stomach [1, 9]: 0.52 ± 0.13 % ID/g
Biodistribution: Testes [1, 9]: 0.37 ± 0.06 % ID/g
Biodistribution: Thymus [1, 9]: 0.91 ± 0.16 % ID/g
Biodistribution: Thyroid [1, 9]: 11.55 ± 4.24 % ID/g
Biodistribution: Bone [1, 10]: 0.64 ± 0.07 % ID/g
Biodistribution: Heart [1, 10]: 4.62 ± 0.27 % ID/g
Biodistribution: Lungs [1, 10]: 11.63 ± 1.52 % ID/g
Biodistribution: Skin [1, 10]: 0.37 ± 0.03 % ID/g
Biodistribution: Bone [1, 11]: 1.01 ± 0.09 % ID/g
Biodistribution: Heart [1, 11]: 2.82 ± 0.15 % ID/g
Biodistribution: Lungs [1, 11]: 8.09 ± 1.14 % ID/g
Biodistribution: Skin [1, 11]: 0.49 ± 0.03 % ID/g
Biodistribution: Adrenals [1, 12]: 9.77 ± 2.42 % ID/g
Biodistribution: Bladder [1, 12]: 1.08 ± 0.14 % ID/g
Biodistribution: Blood [1, 12]: 0.26 ± 0.03 % ID/g
Biodistribution: Bone [1, 12]: 1.22 ± 0.22 % ID/g
Biodistribution: Brain [1, 12]: 0.23 ± 0.03 % ID/g
Biodistribution: GIT [1, 12]: 1.43 ± 0.34 % ID/g
Biodistribution: Heart [1, 12]: 3.38 ± 0.44 % ID/g
Biodistribution: Kidney [1, 12]: 1.61 ± 0.29 % ID/g
Biodistribution: Liver [1, 12]: 0.34 ± 0.05 % ID/g
Biodistribution: Lungs [1, 12]: 10.26 ± 1.09 % ID/g
Biodistribution: Muscle [1, 12]: 0.27 ± 0.03 % ID/g
Biodistribution: Olfactory bulbs [1, 12]: 0.50 ± 0.13 % ID/g
Biodistribution: Pancreas [1, 12]: 0.49 ± 0.12 % ID/g
Biodistribution: Skin [1, 12]: 0.59 ± 0.06 % ID/g
Biodistribution: Spleen [1, 12]: 2.29 ± 0.50 % ID/g
Biodistribution: Stomach [1, 12]: 0.49 ± 0.13 % ID/g
Biodistribution: Testes [1, 12]: 0.52 ± 0.06 % ID/g
Biodistribution: Thymus [1, 12]: 1.21 ± 0.27 % ID/g
Biodistribution: Thyroid [1, 12]: 8.29 ± 3.22 % ID/g
Tracer uptake after pre-treatment with PK 11195 ([2]; PK 11195 1 mg/kg 5 min prior to tracer): decreased
Tracer uptake after pre-treatment with PK 11195 ([2]; PK 11195 1 mg/kg 5 min prior to tracer, listed as [^18F]PBR102): blocking effect
Tracer uptake in the adrenals after pre-treatment with PK 11195 ([2]; PK 11195 1 mg/kg 5 min prior to tracer, adrenals): increase
Tracer uptake after pre-treatment with Ro 5-4864 ([2]; Ro 5-4864 1 mg/kg 5 min prior to tracer): decreased
Tracer uptake after pre-treatment with Ro 5-4864 ([2]; Ro 5-4864 1 mg/kg 5 min prior to tracer, listed as [^18F]PBR102): blocking effect
Tracer uptake in the adrenals after pre-treatment with Ro 5-4864 ([2]; Ro 5-4864 1 mg/kg 5 min prior to tracer, adrenals): increase
Tracer uptake after pre-treatment with flumazenil (central benzodiazepine ligand) [2]: no effect
Tracer uptake after pre-treatment with flumazenil (central benzodiazepine ligand) ([2]; listed as [^18F]PBR102): does not reduce
Tracer uptake after pre-treatment with the non-radioactive analogue ([2]; non-radioactive analogue 1 mg/kg, PBR-expressing tissues): blocking effect
